Test results from ChEMBL document CHEMBL1201862, “PubChem BioAssay data set” (2004).
Where a name gives a salt, the structure may show the parent alone.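 Each compound was tested at five concentrations against cells in 96-well plates for 48 hours. GI50: concentration for 50% inhibition of growth.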 The source made the active and inactive calls. Rule as the data show it: active = GI50 up to about 1.1 µM and inactive = higher.

Key:
Assay in all cases: DTP human tumour cell line panel, 48 h
[1] = test system: SF-268
[2] = test system: M14
[3] = test system: NCI-H226
[4] = test system: CAKI-1
[5] = test system: NCI-H23
[6] = test system: EKVX
[7] = test system: M19-MEL
[8] = test system: IGROV-1
[9] = test system: DMS-273
[10] = test system: Malme-3M
[11] = test system: SF-295
[12] = test system: A498
[13] = test system: HOP-18
[14] = test system: TK-10
[15] = test system: SF-539
[16] = test system: HT-29
[17] = test system: SK-MEL-2
[18] = test system: OVCAR-8
[19] = test system: NCI-H522
[20] = test system: SN12C
[21] = test system: UACC-62
[22] = test system: SK-MEL-5
[23] = test system: HCC 2998
[24] = test system: ACHN
[25] = test system: SNB-75
[26] = test system: HOP-92
[27] = test system: K562
[28] = test system: DMS-114
[29] = test system: LXFL 529
[30] = test system: HCT-15
[31] = test system: RPMI-8226
[32] = test system: CCRF-CEM
[33] = test system: A549
[34] = test system: OVCAR-3
[35] = test system: HL-60
[36] = test system: SNB-19
[37] = test system: COLO 205
[38] = test system: SW-620
[39] = test system: U-251
[40] = test system: SK-OV-3
[41] = test system: LOX IMVI
[42] = test system: RXF 393
[43] = test system: SK-MEL-28
[44] = test system: OVCAR-5
[45] = test system: 786-0
[46] = test system: OVCAR-4
[47] = test system: SNB-78
[48] = test system: KM-20L2
[49] = test system: UACC-257
[50] = test system: UO-31
[51] = test system: HCT-116
[52] = test system: DLD-1
[53] = test system: KM12
[54] = test system: MOLT-4
[55] = test system: XF498
[56] = test system: MCF7
[57] = test system: NCI-H460
[58] = test system: HOP-62
[59] = test system: NCI/ADR-RES
[60] = test system: SR

In the case of `O=c1c2ccccc2c(=O)n2n1CC=CC2`, the GI50 [1] is reported as > 100 µM (inactive), the GI50 [2] is reported as > 100 µM (inactive) and the GI50 [3] is reported as > 100 µM (inactive). For the same molecule, the GI50 [4] was > 100 µM (inactive), the GI50 [5] was > 100 µM (inactive) and the GI50 [6] was > 100 µM (inactive). For the same molecule, the GI50 [7] was > 100 µM (inactive), the GI50 [8] was > 100 µM (inactive) and the GI50 [9] was > 100 µM (inactive). For the same molecule, the GI50 [10] was > 100 µM (inactive), the GI50 [11] was > 100 µM (inactive) and the GI50 [12] was > 100 µM (inactive). For the same molecule, the GI50 [13] was > 100 µM (inactive), the GI50 [14] was > 100 µM (inactive) and the GI50 [15] was > 100 µM (inactive). For the same molecule, the GI50 [16] was > 100 µM (inactive), the GI50 [17] was > 100 µM (inactive) and the GI50 [18] was > 100 µM (inactive). The GI50 [19] was > 100 µM (inactive), the GI50 [20] was > 100 µM (inactive) and the GI50 [21] was > 100 µM (inactive). For the same molecule, the GI50 [22] was > 100 µM (inactive), the GI50 [23] was > 100 µM (inactive) and the GI50 [24] was > 100 µM (inactive). For the same molecule, the GI50 [25] was > 100 µM (inactive), the GI50 [26] was > 100 µM (inactive) and the GI50 [27] was > 100 µM (inactive). The GI50 [28] was > 100 µM (inactive), the GI50 [29] was > 100 µM (inactive) and the GI50 [30] was > 100 µM. The GI50 [31] was > 100 µM (inactive), the GI50 [32] was > 100 µM (inactive) and the GI50 [33] was > 100 µM (inactive). The GI50 [34] was > 100 µM (inactive), the GI50 [35] was > 100 µM (inactive) and the GI50 [36] was > 100 µM (inactive). For the same molecule, the GI50 [37] was > 100 µM (inactive), the GI50 [38] was > 100 µM (inactive) and the GI50 [39] was > 100 µM (inactive). For the same molecule, the GI50 [40] was > 100 µM (inactive), the GI50 [41] was > 100 µM (inactive) and the GI50 [42] was > 100 µM (inactive). For the same molecule, the GI50 [43] was > 100 µM (inactive), the GI50 [44] was > 100 µM (inactive) and the GI50 [45] was > 100 µM (inactive). The GI50 [46] was > 100 µM (inactive), the GI50 [47] was > 100 µM (inactive) and the GI50 [48] was > 100 µM (inactive). For the same molecule, the GI50 [49] was > 100 µM (inactive), the GI50 [50] was > 100 µM (inactive) and the GI50 [51] was > 100 µM (inactive). For the same molecule, the GI50 [52] was > 100 µM (inactive), the GI50 [53] was > 100 µM (inactive) and the GI50 [54] was > 100 µM (inactive).
`CCCCc1oc2ccccc2c1C(=O)c1cc(I)c(OCCN(CC)CC)c(I)c1` [AMIODARONE HYDROCHLORIDE] was tested, and the GI50 [1] was 11 µM (inactive), the GI50 [3] was 4.5 µM (inactive) and the GI50 [4] was 6.14 µM (inactive). The GI50 [5] was 6.15 µM (inactive), the GI50 [55] was 4.69 µM (inactive) and the GI50 [6] was 9.79 µM (inactive). The GI50 [7] was 4.67 µM (inactive), the GI50 [56] was 5.19 µM (inactive) and the GI50 [8] was 11.1 µM (inactive). The GI50 [9] was 4.16 µM (inactive), the GI50 [10] was 4.89 µM (inactive) and the GI50 [11] was 4.63 µM (inactive). For the same molecule, the GI50 [12] was 5.02 µM (inactive), the GI50 [13] was 0.791 µM (active) and the GI50 [15] was 5.07 µM (inactive). For the same molecule, the GI50 [16] was 4.42 µM (inactive), the GI50 [17] was 4.63 µM (inactive) and the GI50 [57] was 4.09 µM (inactive). For the same molecule, the GI50 [19] was 5.06 µM (inactive), the GI50 [20] was 7.73 µM (inactive) and the GI50 [21] was 5.28 µM (inactive). For the same molecule, the GI50 [22] was 4.7 µM (inactive), the GI50 [23] was 3.85 µM (inactive) and the GI50 [25] was 7.59 µM (inactive). The GI50 [26] was 3.86 µM (inactive), the GI50 [27] was 3.88 µM (inactive) and the GI50 [58] was 10.6 µM (inactive). For the same molecule, the GI50 [30] was 4.12 µM, the GI50 [31] was 3.71 µM (inactive) and the GI50 [32] was 4.54 µM (inactive). For the same molecule, the GI50 [33] was 8.51 µM (inactive), the GI50 [34] was 6.22 µM (inactive) and the GI50 [35] was 2.79 µM (inactive). For the same molecule, the GI50 [36] was 6.21 µM (inactive), the GI50 [37] was 4.21 µM (inactive) and the GI50 [38] was 4.59 µM (inactive). For the same molecule, the GI50 [39] was 4.16 µM (inactive), the GI50 [40] was 5.98 µM (inactive) and the GI50 [41] was 3.82 µM (inactive). The GI50 [42] was 3.82 µM (inactive), the GI50 [43] was 4.8 µM (inactive) and the GI50 [44] was 5.21 µM (inactive). The GI50 [46] was 6.5 µM (inactive), the GI50 [47] was 7.6 µM (inactive) and the GI50 [48] was 3.64 µM (inactive). For the same molecule, the GI50 [49] was 5.21 µM (inactive), the GI50 [51] was 4.17 µM (inactive) and the GI50 [59] was 5.86 µM (inactive). For the same molecule, the GI50 [52] was 6.73 µM (inactive), the GI50 [53] was 5.51 µM (inactive) and the GI50 [54] was 3.4 µM (inactive).
For `Cc1ccc(S(=O)(=O)OC(c2ccc(Cl)cc2Cl)C2OC(=O)c3ccccc32)cc1` (centres undefined), the GI50 [1] was 51.3 µM (inactive), the GI50 [2] was > 100 µM (inactive) and the GI50 [3] was 19.7 µM (inactive). The GI50 [5] was > 100 µM (inactive), the GI50 [60] was 30.6 µM (inactive) and the GI50 [55] was > 100 µM (inactive). For the same molecule, the GI50 [6] was > 100 µM (inactive), the GI50 [7] was > 100 µM (inactive) and the GI50 [8] was 97.3 µM (inactive). For the same molecule, the GI50 [9] was 75.5 µM (inactive), the GI50 [10] was > 100 µM (inactive) and the GI50 [11] was 90.2 µM (inactive). For the same molecule, the GI50 [14] was > 100 µM (inactive), the GI50 [15] was 73.6 µM (inactive) and the GI50 [16] was 38.6 µM (inactive). The GI50 [17] was 73.6 µM (inactive), the GI50 [57] was 35.8 µM (inactive) and the GI50 [18] was > 100 µM (inactive). For the same molecule, the GI50 [19] was 57.9 µM (inactive), the GI50 [20] was > 100 µM (inactive) and the GI50 [21] was 53.8 µM (inactive). The GI50 [22] was 53.1 µM (inactive), the GI50 [24] was > 100 µM (inactive) and the GI50 [27] was 33.6 µM (inactive). The GI50 [58] was > 100 µM (inactive), the GI50 [28] was 45.8 µM (inactive) and the GI50 [29] was > 100 µM (inactive). The GI50 [30] was 56.5 µM, the GI50 [31] was 36.7 µM (inactive) and the GI50 [32] was 34.8 µM (inactive). For the same molecule, the GI50 [33] was 68.5 µM (inactive), the GI50 [34] was 40.4 µM (inactive) and the GI50 [35] was 21.4 µM (inactive). The GI50 [36] was 42.7 µM (inactive), the GI50 [37] was 83.2 µM (inactive) and the GI50 [38] was 71.4 µM (inactive). The GI50 [39] was 56.4 µM (inactive), the GI50 [41] was > 100 µM (inactive) and the GI50 [42] was 67.1 µM (inactive). The GI50 [43] was > 100 µM (inactive), the GI50 [44] was > 100 µM (inactive) and the GI50 [45] was > 100 µM (inactive). The GI50 [46] was 47.5 µM (inactive), the GI50 [47] was > 100 µM (inactive) and the GI50 [48] was 32.7 µM (inactive). The GI50 [50] was 27.4 µM (inactive), the GI50 [51] was 30.8 µM (inactive) and the GI50 [53] was 36 µM (inactive). For the same molecule, the GI50 [54] was 30.2 µM (inactive).
